Experimental findings from patent EP1960783B1, “REDUCTION OF NON-SPECIFIC BINDING IN ASSAYS” (Siemens Healthcare Diagnostics Inc., priority 2005, dated 2007) are described below.

The experiment can be described thus: Blocking of non-specific binding by candidate blocker additives in the LOCI assay for CTNI (troponin) on the VISTA analyzer. The note with it: for % supression*: NSB 1 sample vs PBS control. The source says:
Samples from a local blood bank were screened to determine if they produced a response with the troponin assay. Any donor sample that produced a positive result with the troponin test was assumed to be a false positive. This was confirmed by testing all samples that gave positive responses with at least one commercially available reference method. For the results reported here, the test results were confirmed using the Dade Behring DIMENSION Rxl® troponin (CTNI) test. The false positive samples were further screened for known causes of false positivity. The primary root cause of false positive results is human antibodies that bind mouse antibodies, an interference known as "HAMA" (Human Anti-Mouse Antibodies). The screening process used to determine if samples have HAMA interference consists of adding known HAMA binders (also known as blocking agents) that are available commercially from Roche and Scantibodies. If a sample that gives a positive response becomes normal when HAMA binders are added to the sample, the sample is assumed to be a false positive due to HAMA. Some samples were not corrected by the addition of HAMA binders. These were used in the testing described in the following examples.
An assay for CTNI, described in "Quantitation of Cardiac Markers by LOCI™ Technology", R. Bauer, et al., (Clinical Chemistry 2004; 50(6 supplement): A5) was used for evaluation of the candidate blocker compounds. The reagents for doing this assay consist of an antibody coated acceptor latex (acceptor bead) that emits light when contacted by singlet oxygen, a biotinylated antibody, and a streptavidin coated donor latex that produces singlet oxygen when illuminated by light of wavelengths that are absorbed by a photosensitizer dye dissolved in the latex particles. The streptavidin of the donor latex was bound to the latex particles through a spacer of dextran with aldehyde linking groups. In the case of the acceptor beads, the antibody was connected to the particles through a linking group or spacer that results from a combination of aminodextran and dextranaldehyde. For both latex reagents, the excess aldehyde groups remaining after linkage of the proteins are reacted with carboxymethoxyamine to quench the aldehydes.
These reagents are packaged in FLEX® containers that serve as reservoirs for the VISTA™ automated clinical analyzer that is described in "Development and Initial Performance of a New High-Volume Multi-Detector Analyzer: The DIMENSION VISTA™ Integrated System", T. Evers, et al. (Clinical Chemistry 2004; 50(6 supplement)) A31. The test kits and the analyzer are available from Dade Behring Inc., Newark, DE, USA. Candidate blocking reagents (soluble protein-polysaccharide conjugates (preformed or formed in situ) that reduce or eliminate interference from sample components) were tested by adding them (or a precursor such as, e.g., dextran aldehyde) to the biotinylated antibody reagent in prototype FLEX® containers or in some cases directly to the sample. FLEX® containers are from Dade Behring Inc.
Each test result shown in the tables below is the average of four test results. In general, the precision of the measurements was <2% CV for calibrators and for measurements of discrepant samples in those cases where effective blockers were used. The testing was done on different days with different instruments, so many control tests were needed to enable comparison of different sets of data.
Dextranaldehyde reacts with proteins to form Schiff's bases between the aldehyde functionality and the lysine amino groups of proteins thereby producing a conjugate. This reaction was accomplished by adding 5 mg/mL 500 kDa dextranaldehyde to the biotinylated antibody reagent of the CTNI FLEX® container, which contains 50 mg/mL of BSA in a pH 7.2 HEPES buffer with 1mg/mL 100-200 KDa dextran. […]

Setting [1] is: Table 4, additive 1 mg/mL added to sample.
Where [2] appears, read: Table 4, additive 1 mg/mL added to calibrators and sample, held half an hour before testing.
Setting [3] is: Table 5 Run 1, additive 5 mg/mL in biotinylated antibody reagent.
[4] abbreviates: Table 5 Run 2, additive 5 mg/mL in biotinylated antibody reagent.

For “100-200-Dexal-BSA-10: dextranaldehyde from 100-200 kDa dextran conjugated with BSA, 100 parts dextranaldehyde to 10 parts BSA”, the “% supression*” value under setting [1] is 98.2%. Also, under setting [2], the “Test Result Counts Cal 0” value is reported as 8,389 Counts, the “Test Result Counts Cal 8” value was 954,766 Counts and the “Test Result Counts NSB 1” value was 26,160 Counts.

Take “100-200-Dexal-BSA-30: dextranaldehyde prepared from 100-200 kDa dextran conjugated with BSA at 100 parts dextranaldehyde to 30 parts BSA”: the “% supression*” value under setting [1] came out at 99.7%. Further, under setting [2], the “Test Result Counts Cal 0” value is 8,460 Counts, the “Test Result Counts Cal 8” value was 969,563 Counts and the “Test Result Counts NSB 1” value is on record as 11,242 Counts.

For the substance “100-200-Dexal-BSA-50, first lot: 100-200 kDa dextranaldehyde conjugated with BSA, 100 parts to 50 parts”, under setting [3], the “% supression*” value was 99.95%, the “Test Result Counts Cal 0” value is 6,578 Counts, the “Test Result Counts Cal 8” value is given as 743,213 Counts and the “Test Result Counts NSB 1” value is given as 7,005 Counts.

In the case of “100-200-Dexal-BSA-50, second lot: 100-200 kDa dextranaldehyde conjugated with BSA, 100 parts to 50 parts”, under setting [3], the “% supression*” value came to 100.00%, the “Test Result Counts Cal 0” value was 7,136 Counts, the “Test Result Counts Cal 8” value is on record as 807,327 Counts and the “Test Result Counts NSB 1” value is 7,134 Counts.

Turning to “100-200-Dexal-BSA-100: 100-200 kDa dextranaldehyde conjugated with BSA, 100 parts to 100 parts”, under setting [3], the “% supression*” value is 99.97%, the “Test Result Counts Cal 0” value is 7,320 Counts, the “Test Result Counts Cal 8” value is 823,386 Counts and the “Test Result Counts NSB 1” value is on record as 7,544 Counts.

Take “100-200-Dexal-ovalbumin-100: 100-200 kDa dextranaldehyde conjugated with ovalbumin, 100 parts to 100 parts”: under setting [4], the “% supression*” value is given as 95.93%, the “Test Result Counts Cal 0” value is 6,370 Counts, the “Test Result Counts Cal 8” value is 734,218 Counts and the “Test Result Counts NSB 1” value is reported as 39,569 Counts.

As for “100-200-Dexat-ovalbumin-50: 100-200 kDa dextranaldehyde conjugated with ovalbumin, 100 parts to 50 parts”, under setting [4], the “% supression*” value was 99.26%, the “Test Result Counts Cal 0” value is reported as 6,573 Counts, the “Test Result Counts Cal 8” value is listed as 749,661 Counts and the “Test Result Counts NSB 1” value is listed as 12,630 Counts.

For the substance “BSA conjugate formed in situ: conjugate formed by adding 5 mg/mL 500 kDa dextranaldehyde to reagent containing 50 mg/mL BSA”, the “blocking the nonspecific binding” value (summary in words of Table 2, discrepant samples NSB 1-29) was “nearly bringing the falsely elevated results to the same level as the zero calibrator”. The blocking the interference entry (summary in words of Table 7, compared with the carboxymethyloxime derivative of dexal) was “significantly more effective”.
